Measurements taken from US11725036B2, “Modified lipidated relaxin B chain peptides and their therapeutic use” (Sanofi, priority 2018, dated 2023).
Starred links: 1 amine or outer side, 2 acyl side, 3 side chain; linkers in the order of their positions; H or OH if unused. Non-standard residues stand in square brackets, D forms with d. Residues, ends and D or L forms follow the SMILES beside them. Groups on a side chain read outwards from the residue. *: point of attachment. X1 = CCCCCCCCCCCCCCCC(=O)N[C@@H](CCC(=O)N[C@@H](CCC(=O)N[C@@H](CCC(=O)NCCCOCCOCCOCCCNC(=O)CCC(=O)NCCCOCCOCCOCCCNC(=O)CCC(=O)NCCCOCCOCCOCCCN*)C(=O)O)C(=O)O)C(=O)O; X2 = CCCCCCCCCCCCCCCC(=O)N[C@@H](CCC(=O)N[C@@H](CCC(=O)N[C@@H](CCC(=O)NCCCOCCOCCOCCCNC(=O)CCC(=O)NCCCOCCOCCOCCCN*)C(=O)O)C(=O)O)C(=O)O; Suc = O=C(CCC(=O)[*:2])[*:1]; αMeK = C[C@](N)(CCCCN)C(=O)O; Aib = CC(C)(N)C(=O)O

Legend:
RXFP1 = biological target: T1, RXFP1 (Homo sapiens, UniProt Q9HBX9); assay: OVCAR5 cAMP assay (HTRF); type: cell-based; settings: for EC50: OVCAR 5 cells expressing endogenous RXFP1, cAMP readout; for Emax: OVCAR 5 cells, maximal cAMP relative to H2-relaxin
T1 construct: OVCAR5 cells expressing endogenous RXFP1; endogenous in cells; host or cells: OVCAR5
T1 sequence (Q9HBX9 1-757): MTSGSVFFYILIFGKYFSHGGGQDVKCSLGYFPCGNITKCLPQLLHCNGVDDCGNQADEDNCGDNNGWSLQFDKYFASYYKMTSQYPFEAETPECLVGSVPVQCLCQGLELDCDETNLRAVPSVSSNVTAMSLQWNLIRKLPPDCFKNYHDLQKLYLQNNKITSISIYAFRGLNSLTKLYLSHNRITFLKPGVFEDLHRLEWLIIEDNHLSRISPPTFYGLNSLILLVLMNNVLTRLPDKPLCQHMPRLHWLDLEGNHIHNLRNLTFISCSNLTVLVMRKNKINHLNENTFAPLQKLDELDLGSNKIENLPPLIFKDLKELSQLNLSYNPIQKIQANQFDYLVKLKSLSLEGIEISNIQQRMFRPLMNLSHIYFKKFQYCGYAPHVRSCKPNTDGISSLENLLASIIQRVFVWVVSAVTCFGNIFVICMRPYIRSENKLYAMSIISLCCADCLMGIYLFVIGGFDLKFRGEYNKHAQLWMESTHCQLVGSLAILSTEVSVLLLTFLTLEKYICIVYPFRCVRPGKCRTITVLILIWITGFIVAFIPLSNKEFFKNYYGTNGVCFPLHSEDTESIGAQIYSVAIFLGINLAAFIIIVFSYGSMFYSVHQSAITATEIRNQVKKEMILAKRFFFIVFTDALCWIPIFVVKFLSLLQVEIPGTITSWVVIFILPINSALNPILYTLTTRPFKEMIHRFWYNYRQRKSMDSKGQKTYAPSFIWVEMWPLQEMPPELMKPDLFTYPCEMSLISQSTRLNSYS
Outline: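 Peptide agonism measured as intracellular cAMP (HTRF) after 30 min at 37° C in serum-free medium, following 40 min 1 mM IBMX preincubation of OVCAR5 cells. Nonlinear regression gave EC50; Emax % = 100 × compound maximal cAMP / H2-relaxin maximal cAMP.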

Stability in rat plasma = type: in vitro ADME; settings: for Rat plasma stability % remaining: T = 0, 37° C., 5 μM; for remaining at 1 h, 5 μM / remaining at 4 h, 5 μM: rat, plasma (sodium or lithium heparin), 37° C.
Experimental: Prior to the testing of stability in plasma (or blood) of a peptide batch, its purity (HPLC-UV) was determined.
Rat and Human plasma: anti-coagulant sodium or lithium heparin.
100 μM solution of study compound in 50 mM phosphate buffer pH 7.4.
950 μL plasma (or blood) was pre-incubated for 5 min at 37° C. 50 μL of compound stock solution was added. Final compound concentration=5 μM. Vortex and transfer 150 μL plasma (or blood) into an Eppendorf for each time point. The time points […] were carried out in duplicate for each species.
After incubation, 150 μL plasma (or blood) was extracted with 600 μL Acetonitrile containing 1% TFA. Said mixture was then vortexed and centrifuged 10 min at 14600 rpm. 200 μL supernatant was dried under N2. Sample was then reconstituted in 200 μL of H2O/CH3CN 98/2+0.1% FA+50 ng/ml Labetalol and analyzed using the analytical system used in solubility and stability studies.
For determination of the amount of the remaining peptide, the peak areas of the target compound at t0 and each time point […] were compared, resulting in “% remaining peptide”, following the equation: % remaining peptide=[(peak area peptide time)×100]/peak area peptide t0. The stability was expressed as “% remaining peptide”.

EC50 (RXFP1)	Emax (RXFP1)	Rat plasma stability % remaining (Stability in rat plasma)	remaining at 1 h, 5 μM (Stability in rat plasma)	remaining at 4 h, 5 μM (Stability in rat plasma)	Structure (SMILES)
0.34 nM	97%	98%	100%	87%	CCCCCCCCCCCCCCCC(=O)N[C@@H](CCC(=O)N[C@@H](CCC(=O)N[C@@H](CCC(=O)NCCCOCCOCCOCCCNC(=O)CCC(=O)NCCCOCCOCCOCCCNC(=O)CCC(=O)NCCCOCCOCCOCCCNC(=O)CCC(=O)NCCCC[C@H](NC(=O)CNC(=O)[C@H](CCC(=O)O)NC(=O)C(C)(C)NC(=O)C(C)(C)NC(=O)[C@@H](NC(=O)[C@H](CCCCNC(C)=O)NC(=O)[C@H](C)NC(=O)[C@H](CCCNC(=N)N)NC(=O)[C@@H](NC(=O)[C@H](CCCCN)NC(=O)[C@H](CCC(=O)O)NC(=O)[C@H](CCCNC(=N)N)NC(=O)CNC(=O)[C@H](CCC(=O)O)NC(=O)[C@H](CC(C)C)NC(C)=O)C(C)C)[C@@H](C)CC)C(=O)N[C@@H](CO)C(=O)N[C@H](C(=O)N[C@@H](Cc1ccccc1)C(=O)N[C@@H](CO)C(=O)N[C@@](C)(CCCCN)C(=O)N[C@@H](CCCNC(=N)N)C(=O)N[C@@H](C)C(=O)N[C@@H](CCCCNC(C)=O)C(N)=O)[C@@H](C)O)C(=O)O)C(=O)O)C(=O)O [compound 3] (Ac-LEGREKVRAK(Ac)I[Aib][Aib]EGK([Suc-X1])STFS[αMeK]RAK(Ac)-NH2)
1.5 nM	89%	100%	100%	59%	CCCCCCCCCCCCCCCC(=O)N[C@@H](CCC(=O)N[C@@H](CCC(=O)N[C@@H](CCC(=O)NCCCOCCOCCOCCCNC(=O)CCC(=O)NCCCOCCOCCOCCCNC(=O)CCC(=O)NCCCC[C@H](NC(=O)CNC(=O)[C@H](CCC(=O)O)NC(=O)C(C)(C)NC(=O)C(C)(C)NC(=O)[C@@H](NC(=O)[C@H](CCCCNC(C)=O)NC(=O)[C@H](C)NC(=O)[C@H](CCCNC(=N)N)NC(=O)[C@@H](NC(=O)[C@H](CCCCN)NC(=O)[C@H](CCC(=O)O)NC(=O)[C@H](CCCNC(=N)N)NC(=O)CNC(=O)[C@H](CCC(=O)O)NC(=O)[C@H](CC(C)C)NC(C)=O)C(C)C)[C@@H](C)CC)C(=O)N[C@@H](CO)C(=O)N[C@H](C(=O)N[C@@H](Cc1c[nH]c2ccccc12)C(=O)N[C@@H](CO)C(=O)NC(C)(C)C(=O)N[C@@H](CCCNC(=N)N)C(=O)N[C@@H](CCCCN)C(=O)N[C@@H](CCCCNC(C)=O)C(N)=O)[C@@H](C)O)C(=O)O)C(=O)O)C(=O)O [compound 4] (Ac-LEGREKVRAK(Ac)I[Aib][Aib]EGK([Suc-X2])STWS[Aib]RKK(Ac)-NH2)
